Laboratory results: patent US20040096815A1, “Method of identifying an eventual modification of at least one biological parameter making use of living cells which are subjected to a stress and living cells which are not subjected to this same stress” (COLETICA, priority 2002, published 2004)

Key:
[1] = tested on: normal human keratinocytes in monolayer; assay: hBD2 and hBD3 expression (RT-PCR, band intensity vs actin) in keratinocytes in monolayer; assay type: cell-based; settings: 100 ng/ml, 16 hours
Experimental: The normal human keratinocytes are cultivated in monolayer on 96-wells culture plates, in a defined medium without serum and enriched with calcium (final concentration 1.7 mM).
At 80% of confluence, the cells are placed in contact with a chemical stress, i.e. molecules which mimic a microbial attack, such as TNFα (100 ng/ml) or IFNγ (100 ng/ml), for 16 hours. Keratinocytes which are non-stressed, i.e. which are not placed in contact with the chemical substances mimicking a microbial attack, are used in a model of reconstructed epidermis.
After 16 hours, the supernatants are collected and the cells are dry frozen at −80° C. after a rinsing with PBS.
The total RNAs are extracted with the aid of a 96-wells fluo extraction kit on silica columns and are determined on a 96-wells spectrophotometer at 260 and 280 nm. The RNAs are diluted at 5 ng/μl.
The one-step qualitative RT-PCR is carried out on 50 ng of RNA (initial) in 96 wells, on actin, hBD2 and hBD3. The primers are used at 0.5 μM and are from the literature: hBD2sense: 5′-[…]-3′; hBD2antisense: 5′-GGAGCCCJTlCTGMTC CGCA-3′ (Harder J. et al., A peptide antibiotic from human skin. Nature 1997; 387: 861); hBD3sense: 5′-[…]-3′, hBD3 antisense: 5′-[…] […]-3′; actin sense: 5′-[…]-3′, actin antisense: 5′-[…]lTTC-3′ (Harder J. et al., Isolation and characterization of hBD3, a novel human inducible peptide antibiotic. J. Biol. Chem. 2001; 276: 5707-5713).
The samples are placed in a thermocycler and following a common program of amplification: 50° C., 30 mins; 94° C., 2 mins; (94° C., 30 secs; 60° C., 30 sec; 68° C., 30 sec) 32 cycles for the defensins and 30 cycles for the actin; 72° C., 10 min; 14° C., infinity.
After amplification, the products are mixed at the rate of 3 μl of products of amplification of actin+6 μl of products of amplification of hBD2+6 μl of products of amplification of hBD3. 5 μl of a mixture of filler buffer and water (2/3) are added and the final 20 μl are deposited on a pre-poured 2% agarose gel. The samples migrate in 30 minutes and the bands are visualized under UV in a black chamber and are photographed digitally.
(§1) The photographs of the gels are analyzed by an image treatment software which quantifies the intensity of the bands. The ratios of intensity of the hBD2/actin and hBD3/actin bands are compared on the one hand between the monolayer model and the 3D model (reconstructed epidermis) in a non-stressed condition, and, on the other hand, following the effect of a stress (cells treated with TNFβ or IFNγ).

[2] = tested on: reconstructed epidermis (foreskin keratinocytes); assay: hBD2 and hBD3 expression (RT-PCR, band intensity vs actin) in 3D reconstructed epidermis; assay type: cell-based, human; settings: 100 ng/ml, 24 hours
Experimental: At the end of experimentation, the reconstructed epidermis are treated in the following manner:
1 sample undergoes no treatment (model comprising reference cells=negative control).
1 sample undergoes no treatment with the actives but undergoes various types of stress at the end of culture (model comprising stressed cells=positive control), e.g. incubation in the presence of TNFα at 100 ng/ml, IFN γ100 ng/ml.
1 sample undergoes the treatment with the active (1% in the culture medium for 24 hours) and then a stress (equivalent to the positive control).
The RNAs are diluted at 5 ng/μl and are treated as described above.
as §1

Substance | HBD2, ratio of intensity of the hBD2/actin bands [1] | HBD3, ratio of intensity of the hBD3/actin bands [1] | HBD2, ratio of intensity of the hBD2/actin bands [2] | HBD3, ratio of intensity of the hBD3/actin bands [2]
IFNγ: molecule mimicking a microbial attack, used as stress | 0.450 | 0.370 | 0.581 | 0.492
TNFα | 1.240 | 0.266 | 1.617 | 0.546
